The conditions of data set [1]: rat, in vivo; for % Enhancement in bioavailability, BE from Zingiber officinale: 35 mg/kg.
Experimental: (§1) Bioenhancers of Zingiber officinale, mean 50% alcoholic extract of fresh ginger. The doses remain unchanged whether the bioenhancers are used alone or in combination.
(§2) The amount of bioenhancers used are given below: • i. from Carum carvi: extract 30 mg/kg body weight (rats); Fraction No. 1: 15 mg/kg body weight (rats) • ii. piperine 8 mg/kg body weight (rats) • iii. Zingiber officinale: 35 mg/kg body weight (rats) • The drug used was rifampicin (40 mg/kg). The drug alone or in combination with the bioenhancers was administered to rats as given below: • Group 1: control • Group 2: Rifampicin alone • Group 3: bioenhancer alone • Group 4: Rifampicin with Carum carvi bioenhancer
(§3) Blood from the control/treated animals at predetermined intervals (0-24 hours) (total 14 timings). Rifampicin was extracted from the blood (plasma) using dichloromethane. […] The mobile phase was phosphate buffer:acetonitrile in a ratio of 40:60, and a flow rate of 1.0 ml/min.
For data set [2] the following is noted: drug with piperine; background statement; cited from earlier work.
Data set [3] in a line: Enhancement of bioavailability of drugs given to rats with bioenhancers (plasma drug level by HPLC).
Experimental: as §1, §2, §3

Like-named read-outs stand apart in the source and are kept apart here.

Consider `NNC(=O)c1ccncc1` [Isoniazid], for which, in data set [1], the “% Enhancement in bioavailability, BE from Carum carvi” value (“% Enhancement … from Carum carvi” for short) is “Nil”; the “% Enhancement in bioavailability, Carum carvi + Piperine” value (shortened to “% Enhancement … Carum carvi + Piperine”) is on record as “nil”; the “% Enhancement in bioavailability, Carum carvi + Zingiber officinale” value is “nil”; the “% Enhancement in bioavailability, BE from Zingiber officinale” value (“% Enhancement … from Zingiber officinale” below) is “Nil”. For the same compound, the “bioenhancing effect of piperine on the drug” value (from here on “bioenhancing effect”) in data set [2] is on record as “nil or marginal”.
In the case of `NC(=O)c1cnccn1` [Pyrazinamide], in data set [1], the “% Enhancement … from Carum carvi” value was 45%; the “% Enhancement … Carum carvi + Piperine” value was determined as 50%; the “% Enhancement in bioavailability, Carum carvi + Zingiber officinale” value came to 55%; the “% Enhancement … from Zingiber officinale” value is on record as “Nil”. In data set [2], the “bioenhancing effect” value is recorded as “nil or marginal”.
As for `CO[C@H]1/C=C/O[C@@]2(C)Oc3c(C)c(O)c4c(O)c(c(/C=N/N5CCN(C)CC5)c(O)c4c3C2=O)NC(=O)/C(C)=C\C=C\[C@H](C)[C@H](O)[C@@H](C)[C@@H](O)[C@@H](C)[C@H](OC(C)=O)[C@@H]1C` [Rifampicin], the “% Enhancement … from Carum carvi” value in data set [3] (drug with Carum carvi bioenhancer (aqueous or 50% alcoholic extract 30 mg/kg or Fraction No. 1 15 mg/kg), drug dose mg/kg) amounted to 110%. For the same compound, the “% Enhancement in bioavailability, Carum carvi + Zingiber officinale” value in data set [3] (drug with Carum carvi bioenhancer and Zingiber officinale 35 mg/kg, drug dose as in row) amounted to 140%. For the same compound, the “% Enhancement … Carum carvi + Piperine” value in data set [3] (drug with Carum carvi bioenhancer and piperine 8 mg/kg, drug dose as in row) is 170%. In data set [3] (drug with Zingiber officinale 50% alcoholic extract of fresh ginger 35 mg/kg, drug dose as in row), the “% Enhancement … from Zingiber officinale” value is 65%. In addition, in data set [3] (drug with piperine 8 mg/kg, drug dose as in row), the “% Enhancement in bioavailability, Piperine as BE” value stood at 45%. Further, the “bioenhancing effect” value in data set [2] is “highly significant”.

Values taken from US20080292736A1, “Bioavailability enhancing activity of carum carvi extracts and fractions thereof” (COUNCIL OF SCIENTIFIC AND INDUSTRIAL RESEARCH, priority 2001, published 2008).
